From patent US20260015341A1, “PI3K INHIBITOR, PREPARATION METHOD THEREFOR, AND USE THEREOF” (HINOVA PHARMACEUTICALS INC., priority 2022, published 2026)

Assays:
[1] = molecular target: PI3Kα[WT]/[E542K]/[E545K]/[H1047R]/PI3Kβ/γ/δ; assay: PI3K enzyme activity assay (ADP-Glo); assay type: biochemical; conditions: PI3K kinase reaction, isoform not given
Protocol: Experimental Example 1: PI3Kα[WT]/[E542K]/[E545K]/[H1047R]/PI3Kβ/γ/δ Enzyme Activity Assay
PI3Kα[WT], PI3Kα[E542K], PI3Kα[E545K], PI3Kα[H1047R], PI3Kβ, PI3Kγ and PI3Kδ kinase reaction was performed in 384-well plate (PerkinElmer, #6008280), with a reaction system of 4 μL. PI3Kα[WT] enzyme solution (Promega, #V1721) or PI3Kα[E542K] enzyme solution (CarnaBio, #11-413-20N) or PI3Kα[E545K] enzyme solution (CarnaBio, #11-414-20N) or PI3Kα[H1047R] enzyme solution (Promega, #V1741) or PI3Kβ enzyme solution (Promega, #V1751) or PI3Kγ enzyme solution (ThermoFisher, #PV4786) or PI3Kδ enzyme solution (ThermoFisher, #PV6451) were added to 384-well plate, and then gradiently diluted compounds were added (starting at a final concentration of 10 μM, 3-fold dilution, 10 doses), followed by adding PIP2: 3PS (Promega, #V1701) and ATP solution (Promega, #V915B) to the plate. After incubation at 25° C. for 1 h, ADP-Glo reagent buffer (Promega, #V9102) was added to each well. The plate was sealed and incubated at 25° C. for 40 min, and then 10 μL of ADP-Glo detection buffer (Promega, #V9102) was added to each well. After incubating at 25° C. for 40 min, the chemiluminescence value was read using an instrument.
The experimental results are shown in the ADP Glo IC50 column in Table 2.

[2] = test system: MCF-10A cells; assay: Inhibitory effects on the proliferation of MCF-10A cells (CCK8); assay type: cell-based; conditions: 6 days
Protocol: Experimental Example 2: Experiment of Inhibitory Effects on the Proliferation of MCF-10A Cells
MCF-10A cells (Cobioer Bio. #CBP60419MCF) were diluted with complete medium (Cobioer Bio. #CBP60419), seeded in 96-well plate (Corning #3599) at 500 cells/well, and then cultured for 24 h. Then, gradiently diluted compounds were added (starting at a final concentration of 10 μM, 3-fold dilution, 9 dose concentrations), and the final volume was adjusted to 100 μL/well. The plate was incubated at 37° C. under 5% CO2 for 6 days. After the cultivation was completed, CCK8 reagent (Signalway Antibody Bio. #CP002) was added at 10 μL/well, and then the plate was further incubated at 37° C. under 5% CO2 for 2-3 hours. The OD450 nm value was obtained by a microplate reader.
The results are shown in the MCF-OA IC50 column in Table 2.

[3] = test system: T47D cells; assay: Inhibitory effects on the proliferation of T47D cells (CellTiter-Glo); assay type: cell-based; conditions: 7 days
Protocol: Experimental Example 3: Experiment of Inhibitory Effects on the Proliferation of T47D Cells
T47D cells (ATCC. #HTB-133) were diluted with RPMI 1640 (Gibco #22400-089) containing 10% FBS (Hyclone #SH30084.03), seeded in 96-well plate (Biosharp #BS-MP-96W) at 1000 cells/well, and then cultured for 24 h. Then, gradiently diluted compounds were added (starting at a final concentration of 10 μM, 3-fold dilution, 9 dose concentrations), and the final volume was adjusted to 150 μL/well. The plate was incubated at 37° C. under […] for 7 days. After the cultivation was completed, CellTiter-Glo reagent (Promega #G7573) was added at 75 μL/well, and then the plate was further incubated at 25° C. for 10 min. After that, the chemiluminescence value was read using an instrument.
The results are shown in the T47D IC50 column in Table 2.

IC50 [1] [nM]	IC50 ([3]; Homo sapiens, 168 h) [nM]	Compound	IC50 ([2]; Homo sapiens, 144 h) [nM]	IC50 [2] [nM]	IC50 [3] [nM]
< 1000	–	Cc1cc([C@@H](C)Nc2ccc(Cl)nc2C(=O)O)c2nc(-c3ncc(Cl)cn3)n(C)c(=O)c2c1 [Compound 96]	–	–	–
< 1000	1000 to 5000	Cc1cc([C@@H](C)Nc2cccc(F)c2C(=O)O)c2nc(-c3ccc(F)cc3)n(C)c(=O)c2c1 [Compound 72]	> 5000	–	–
< 1000	1000 to 5000	C[C@@H](Nc1cccc(F)c1C(=O)O)c1cc(F)cc2c(=O)n(C)c(-c3ccc(F)cn3)nc12 [Compound 73]	> 5000	–	–
> 5000	> 5000	Cc1cc([C@@H](C)NC2CCC(=O)NC2=O)c2oc(-c3ccc(F)cc3F)cc(=O)c2c1 (some centres unmarked) [Compound 117]	> 5000	–	–
< 1000	< 1000	C[C@@H](Nc1ccc(F)cc1C(=O)O)c1cc(F)cc2c(=O)n(C)c(-c3ccc(F)cn3)nc12 [Compound 77]	> 5000	–	–
< 1000	1000 to 5000	Cc1cc([C@@H](C)Nc2cccc(F)c2C(=O)O)c2nc(-c3ccc(F)cn3)n(C)c(=O)c2c1 [Compound 70]	> 5000	–	–
< 1000	< 1000	Cc1cc([C@@H](C)Nc2ccc(Cl)nc2C(=O)O)c2oc(-c3ccc4c(c3)OC(F)(F)O4)cc(=O)c2c1 [Compound 46]	> 5000	–	–
< 1000	< 1000	Cc1cc([C@@H](C)Nc2ccccc2C(=O)O)c2oc(C3CCC(F)(F)CC3)cc(=O)c2c1 [Compound 58, (R)-2-((1-(2-(4,4-difluorocyclohexyl)-6-methyl-4-oxo-4H-chromen-8-yl)ethyl)amino)benzoic Acid]	> 5000	–	–
1000 to 5000	–	Cc1cc([C@@H](C)Nc2ccnn2C)c2oc(-c3ccc(F)cc3F)cc(=O)c2c1 [Compound 42]	–	–	–
< 1000	< 1000	C[C@@H](Nc1ccc(Cl)nc1C(=O)O)c1cc(F)cc2c(=O)n(C)c(-c3ncc(Cl)cn3)nc12 [Compound 99]	> 5000	–	–
< 1000	1000 to 5000	Cc1cc([C@@H](C)Nc2ccc[nH]c2=O)c2oc(-c3ccc(F)cc3F)cc(=O)c2c1 [Compound 62]	> 5000	–	–
< 1000	> 5000	Cc1cc([C@@H](C)Nc2ccsc2C(=O)O)c2nc(-c3ccc(F)cn3)n(C)c(=O)c2c1 [Compound 82]	> 5000	–	–
< 1000	< 1000	Cc1cc([C@@H](C)Nc2ccc(Cl)nc2C(=O)O)c2nc(-c3cc(F)ccc3F)n(C)c(=O)c2c1 [Compound 60]	> 5000	–	–
< 1000	< 1000	C[C@@H](Nc1ccc(Cl)nc1C(=O)O)c1cc(F)cc2c(=O)n(C)c(-c3ncccn3)nc12 [Compound 100]	> 5000	–	–
< 1000	< 1000	Cc1cc([C@@H](C)Nc2ccc(Cl)nc2C(=O)O)c2nc(-c3ccc(F)cc3F)n(C)c(=O)c2c1 [Compound 44]	> 5000	–	–
< 1000	> 5000	Cc1cc([C@@H](C)Nc2ccccc2C(O)C(F)(F)F)c2oc(-c3ccc(F)cc3F)cc(=O)c2c1 (stereo partly drawn) [Compound 57, 2-(2,4-difluorophenyl)-6-methyl-8-((1R)-1-((2-(2,2,2-trifluoro-1-hydroxyethyl)phenyl)amino)ethyl)-4H-chromen-4-one]	> 5000	–	–
< 1000	< 1000	Cc1cc([C@@H](C)Nc2ccccc2C(=O)O)c2nc(N3CCC(C)(C)CC3)n(C)c(=O)c2c1 [Compound 6, (R)-2-((1-(2-(4,4-dimethylpiperidin-1-yl)-3,6-dimethyl-4-oxo-3,4-dihydroquinazolin-8-yl)ethyl)amino)benzoic Acid]	–	–	–

IC50 [1] [nM]	IC50 ([3]; Homo sapiens, 168 h) [nM]	Compound	IC50 ([2]; Homo sapiens, 144 h) [nM]	IC50 [2] [nM]	IC50 [3] [nM]
< 1000	< 1000	Cc1cc([C@@H](C)Nc2ccccc2C(=O)O)c2oc(-c3ccc4c(c3)OC(F)(F)O4)cc(=O)c2c1 [Compound 43]	> 5000	–	–
< 1000	< 1000	Cc1cc([C@@H](C)Nc2ccccc2C(=O)O)c2nc(-c3ccc(F)cc3F)n(C)c(=O)c2c1 [Compound 45]	> 5000	–	–
< 1000	–	Cc1ccc(N[C@H](C)c2cc(C)cc3c(=O)n(C)c(-c4c(F)cccc4F)nc23)c(C(=O)O)c1 [Compound 38]	–	–	–
< 1000	< 1000	C[C@@H](Nc1ccc(Cl)cc1C(=O)O)c1cc(F)cc2c(=O)n(C)c(-c3ccc(F)cn3)nc12 [Compound 80]	> 5000	–	–
1000 to 5000	–	Cc1cc([C@@H](C)Nc2ccccc2C(=O)O)c2nc(N3CCC(C)(C)CC3)[nH]c(=O)c2c1 [Compound 4, (R)-2-((1-(2-(4,4-dimethylpiperidin-1-yl)-6-dimethyl-4-oxo-3,4-dihydroquinazolin-8-yl)ethyl)amino)benzoic Acid]	–	–	–
> 5000	> 5000	Cc1cc([C@@H](C)Nc2ccccc2S(N)(=O)=O)c2oc(-c3ccc(F)cc3F)cc(=O)c2c1 [Compound 27, (R)-2-((1-(2-(2,4-difluorophenyl)-6-methyl-4-oxo-4H-chromen-8-yl)ethyl)amino)benzenesulfonamide]	> 5000	–	–
1000 to 5000	> 5000	Cc1cc([C@@H](C)Nc2cccc3c2C(=O)NC3=O)c2oc(-c3ccc(F)cc3F)cc(=O)c2c1 [Compound 55]	> 5000	–	–
< 1000	1000 to 5000	Cc1cc([C@@H](C)Nc2ccccc2C(=O)O)c2nc(-c3ccc(F)cc3F)cc(=O)n2c1 [Compound 41, (R)-2-((1-(2-(2,4-difluorophenyl)-7-methyl-4-oxo-4H-pyrido[1,2-a]pyrimidin-9-yl)ethyl)amino)benzoic Acid]	> 5000	–	–
< 1000	< 1000	Cc1cc([C@@H](C)Nc2ccccc2C(=O)O)c2nc(-c3cc(F)ccc3F)n(C)c(=O)c2c1 [Compound 59]	> 5000	–	–
1000 to 5000	< 1000	Cc1cc([C@@H](C)Nc2ccccc2NS(C)(=O)=O)c2oc(-c3ccc(F)cc3F)cc(=O)c2c1 [Compound 28]	> 5000	–	–
< 1000	< 1000	Cc1cc([C@@H](C)Nc2ccc(Cl)nc2C(=O)O)c2nc(-c3c(C)nn(C)c3C)n(C)c(=O)c2c1 [Compound 53]	1000 to 5000	–	–
1000 to 5000	1000 to 5000	[2H]C([2H])([2H])NC(=O)c1ncccc1N[C@H](C)c1cc(C)cc2c(=O)cc(-c3ccc(F)cc3F)oc12 [Compound 48, (R)-3-((1-(2-(2,4-difluorophenyl)-6-methyl-4-oxo-4H-chromen-8-yl)ethyl)amino)-N-(methyl-d3)picolinamide]	> 5000	–	–
< 1000	–	Cc1cc([C@@H](C)Nc2ccccc2C(=O)O)c2nc(-c3c(F)cccc3F)n(C)c(=O)c2c1 [Compound 37, (R)-2-((1-(2-(2,6-difluorophenyl)-3,6-dimethyl-4-oxo-3,4-dihydroquinazolin-8-yl)ethyl)amino)benzoic Acid]	–	–	–
1000 to 5000	–	Cc1cc([C@@H](C)N[S@+]([O-])C(C)(C)C)c2nc(N3CCC(C)(C)CC3)n(C)c(=O)c2c1 [Compound 5]	–	–	–
< 1000	< 1000	Cc1cc([C@@H](C)Nc2ccccc2C(=O)O)c2nc(-c3ccc(F)cc3)n(C)c(=O)c2c1 [Compound 61]	> 5000	–	–
1000 to 5000	> 5000	Cc1cc([C@@H](C)Nc2cccc(F)c2C(=O)O)c2nc(-c3ccc(C(F)(F)F)cn3)n(C)c(=O)c2c1 [Compound 71]	> 5000	–	–
< 1000	< 1000	COC(=O)c1nc(Cl)ccc1N[C@H](C)c1cc(C)cc2c(=O)n(C)c(-c3ccncc3)nc12 [Compound 103]	> 5000	–	–

Compound	IC50 [1] [nM]	IC50 ([3]; Homo sapiens, 168 h) [nM]	IC50 ([2]; Homo sapiens, 144 h) [nM]	IC50 [2] [nM]	IC50 [3] [nM]
Cc1cc([C@@H](C)Nc2ccccc2C(=O)O)c2[nH]c(-c3ccc(F)cn3)[n+](C)c(=O)c2c1 [Compound 69]	< 1000	–	–	> 5000	< 1000
